The assay relates to D54 ERlucT glycosylation luciferase reporter, luminescence, 24 h. In words: N-linked glycosylation inhibitors, luciferase reporter, dose response, D54 ERlucT cells, luminescence, cherry-picks (AID 624491).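 Further: signal gain reflects blocked N-linked glycosylation of a luciferase reporter; actives raise luciferase signal so AC26 marks activators of the reporter.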 A general note: A reporter such as luciferase makes a cellular process visible.

Turning to `CN1CCN(C(c2ccc(Cl)cc2)c2cc(Cl)c3cccnc3c2O)CC1` (centres undefined), the AC26 is 4.04 µM.
Turning to `CC(C)n1c(/C=C/[C@H](O)C[C@H](O)CC(=O)O)c(-c2ccc(F)cc2)c2ccccc21`, the AC26 was 0.0778 µM.
As for `CCOc1cc(C(=O)Nc2ccc(N3CCOCC3)cc2)cc(Br)c1OC`, the figure is 2.77 µM; as for `COc1ccccc1-c1csc(C(NC(C)=O)c2ccccc2)n1` (centres undefined), less than 0.0012 µM; as for `C=CCn1c(O)c(/C=C2/C=CC=N2)c(=O)[nH]c1=O`, 3.08 µM.
In the case of `Cc1nc([N+](=O)[O-])c(Sc2nc3ccccc3[nH]2)n1Cc1ccccc1` it was 8.51 µM.
Turning to `Cc1ccc(-c2cnc(C3CC3)o2)cc1S(=O)(=O)Nc1ccccc1`, the AC26 is 9.07 µM.
As for `COc1cc(C(=O)Nc2cc3c(cc2N2CCCCC2)n(C)c(=O)n3C)cc(OC)c1OC`, the figure is 3.87 µM; as for `Cc1ccc(/C=N/NC(=O)C2COc3ccccc3O2)s1` (centres undefined), 0.307 µM; as for `COc1cc(C2c3[nH]c4ccccc4c3CC3COC(=O)N32)cc(OC)c1O` (centres undefined), 0.78 µM.
In the case of `CCOc1ncccc1C(=O)Nc1cc2c(cc1Br)OCCO2` it was 7.78 µM; in that of `Nc1nc(CN2CCN(Cc3ccccc3)CC2)nc(Nc2ccc3c(c2)OCCO3)n1`, 0.699 µM.
In the case of `O=C(c1cccs1)N1CCC(c2nc3c(nnn3Cc3cccc(Cl)c3)c(=O)[nH]2)CC1` it was 0.217 µM.
On to `Cc1ccc(C=Nc2ccccc2C(N)=O)cc1`, for which the AC26 is 2.52 µM.
In the case of `COc1cc(C)c2sc3ccccc3c(=O)c2c1NCCN(C)C` it was 0.468 µM.
`O=C(COC(=O)c1ccc(NS(=O)(=O)c2cccs2)cc1O)NCc1ccccc1`: the AC26 is 4.82 µM.
In the case of `COC(=O)c1ccc(C(=O)NC2CC(C)(C)Cc3c2cnn3-c2ccc(F)cc2)nc1` (centres undefined) it was 4.17 µM; in that of `O=C(Nc1cccc(-n2cnnn2)c1)c1cc(Cl)ccc1Cl`, 4.57 µM.
As for `O=C1OCC2=C1C(c1ccc3c(c1)OCO3)c1cc3c(cc1O2)OCO3` (centres undefined), the figure is 0.661 µM.
As for `COC(=O)c1cc(=O)n(-c2ccc(F)cc2)c(=Nc2ccc(F)cc2)s1`, the figure is 4.23 µM; as for `Cc1ccc(C(=O)N/C(=C\c2cccs2)C(=O)NCCc2c[nH]c3ccccc23)cc1C`, 4.86 µM.
For `COc1ccc(CCn2c(=N)c(S(=O)(=O)c3ccc(C)cc3)cc3c(=O)n4ccccc4nc32)cc1`, the AC26 was 0.988 µM.
As for `CC(=O)c1c(C)[nH]c(C(=O)Nc2cccc(S(=O)(=O)N3CCCC3)c2)c1C`, the figure is 2.61 µM.
In the case of `Cc1nc([N+](=O)[O-])c(Br)n1Cc1ccc(Cl)c(Cl)c1` it was 0.885 µM; in that of `CC(=O)Nc1cc(-c2cccc(C(=O)N(C)C)c2)cn2c(-c3cccc(C(=O)N(C)C)c3)cnc12`, 0.897 µM.
As for `Cc1ccc(-c2nc(NCCCN(C)C)c3ccccc3n2)cc1`, the figure is 5.65 µM.
As for `COc1cc2c(cc1OC)C(c1ccccc1)N(C(=O)c1ccccc1F)CC2` (centres undefined), the AC26 was 1.1 µM.
In the case of `COc1cc(/C=C2/CCC/C(=C\c3cc(O)c(OC)c(Cl)c3)C2=O)cc(Cl)c1O` it was 2.23 µM; in that of `CC(=O)NC(=C(Cl)Cl)S(=O)(=O)c1ccccc1`, 1.08 µM.
On to `Cc1ccc(N2CCN(C3=NC(=O)/C(=C\c4cn[nH]c4-c4ccccc4)S3)CC2)cc1`, for which the AC26 is 1.35 µM.
In the case of `CC1(C(=O)NCCC(F)(F)F)Cc2c(-c3cccc(C(F)(F)F)c3)ccnc2O1` (centres undefined) it was 15.2 µM; in that of `Cc1ccc(S(=O)(=O)C(NC(=O)c2ccccc2)=C(Cl)Cl)cc1`, 4.09 µM.
As for `c1cnc2nc3c4ccccc4c4ccccc4c3nc2c1`, the figure is 10.2 µM.
Turning to `Cc1ccc(COc2ccccc2-c2cc(C(=O)N/N=C/c3cccnc3)[nH]n2)cc1`, the AC26 was 5.26 µM.
In the case of `CCOc1ccc(S(=O)(=O)NCc2cccnc2)cc1NC(=O)c1ccccc1F` it was 9.74 µM.
In the case of `COc1ccc(OC)c(Nc2ncnc3c2cnn3-c2cccc(C)c2)c1` it was 3.24 µM; in that of `CN(C)S(=O)(=O)c1ccc(N2CCCC2)c(C(=O)Nc2nc3ccccc3s2)c1`, 0.545 µM.
`CCCCN(CC)CCCNC(=O)c1cc2c(=O)n(C)c3ccccc3c2n1C`: the AC26 was 3.31 µM.
Take `CCc1ccc(Nc2n[n+](-c3ccccc3)c(-c3ccc(N(CC)CC)cc3)s2)cc1`: the AC26 was 7.03 µM.
In the case of `COc1cccc(C2=CC(c3cccs3)n3nnnc3N2)c1` (centres undefined) it was 0.7 µM; in that of `O=C1[C@H]2[C@@H](c3ccc(F)cc3)N3C(=O)N(c4cccc(Cl)c4)C(=O)[C@@]3(Cc3ccccc3)[C@H]2C(=O)N1C1CCCCC1`, 0.0164 µM; in that of `NC(=O)COc1ccc(C(=O)/C=C2/C(=O)Nc3ccccc32)cc1`, 3.18 µM.
In the case of `O=c1[nH]c(=O)n(C2CC(O)C(CO)O2)cc1Br` (centres undefined), the AC26 is 1.49 µM.
As for `COc1ccc2c(c1)c(C(=O)N/N=C/c1ccc(Br)cc1)c(C)n2C`, the figure is 17.1 µM; as for `O=C(Nc1cc(Cl)ccc1N1CCOCC1)c1ccc(N2CCCC2=O)cc1`, 0.108 µM.
As for `Cc1cc2[nH]c3ccccc3c2c(C)n1`, the figure is 3.67 µM.
In the case of `Cn1c(=O)cc(OCCCC(=O)NC2CCCC2)c2ccccc21` it was 2.4 µM.
For `CN(/N=C/c1ccc(N(C)C)cc1)C1=NS(=O)(=O)c2ccccc21`, the AC26 is 1.61 µM.
In the case of `COc1ccc(NC(=O)COC(=O)/C=C/C(=O)OCC(=O)Nc2ccc(OC)c(Cl)c2)cc1Cl` it was 16.6 µM; in that of `CCc1ccc(CNC(=O)Cc2ccc(NC(=O)C3=C(C)OCCS3)cc2)cc1`, 0.352 µM.
Take `CN(C)/N=C/c1ccc(Sc2ccc([N+](=O)[O-])cc2[N+](=O)[O-])o1`: the AC26 is 1.88 µM.
On to `COc1ccc(NC(=O)c2cccc3c(-c4ccc(O)c(OC)c4)coc23)cc1`, for which the AC26 is 13.4 µM.
In the case of `Cn1cc(/C=N/n2cnc3scc(-c4ccc(Cl)cc4)c3c2=O)c2ccccc21` it was 0.0584 µM.
Regarding `Cc1nc(-c2ccccc2)sc1-c1nc(-c2ccncc2)ncc1S(=O)(=O)c1ccccc1`, the AC26 is 0.956 µM.
As for `Cc1cc(NC(=O)COC(=O)c2ccc(S(=O)(=O)N3CCCc4ccccc43)cc2)no1`, the figure is 0.665 µM; as for `O=C(NCc1cccs1)C1Cc2c(-c3ccc(Cl)cc3)ccnc2O1` (centres undefined), 1.67 µM; as for `Cc1cc(C)c2nc3nc(C)cc(C)c3c(N)c2c1`, 0.145 µM.
As for `COc1ccc(NC(=O)C2(C)Cc3c(-c4cccc(NC(C)=O)c4)ccnc3O2)cn1` (centres undefined), the figure is 10.1 µM; as for `C/C(=N\NC(=O)c1c([N+](=O)[O-])c(C)nn1C)c1ccc(NC(=O)C2CCCC2)cc1`, 0.498 µM.
As for `COc1ccc(C=CC(=O)c2ccc3cc(OC)c(OC)cc3c2)cc1OC`, the figure is 2.86 µM; as for `CC1(C(=O)NCc2ccco2)Cc2c(-c3ccc(C(N)=O)cc3)ccnc2O1` (centres undefined), 1.39 µM; as for `Cc1cc([N+](=O)[O-])ccc1-c1ccc(/C=N/NC(=O)c2ccc(Br)o2)o1`, 4.51 µM.
Regarding `CCN1C(=O)c2cccc3c(S(=O)(=O)N4CCC(C)CC4)ccc1c23`, the AC26 is 1.72 µM.
In the case of `COc1cc(OC)cc(C(=O)N/N=C/c2ccc(OC)c(COc3ccc(F)cc3)c2)c1` it was 2.25 µM; in that of `CN(CCCNC(=O)CCCOc1cc(=O)n(C)c2ccccc12)Cc1ccccc1`, 5.23 µM; in that of `Cc1ccc(C(=O)Nc2ccc(NC(=O)c3cccs3)cc2)c(C)c1`, 8.55 µM.
As for `O=C(NCCCn1ccnc1)c1cc(-c2cccs2)on1`, the figure is 3.43 µM.
As for `Cc1ccc(-c2nc(C(=O)NCCCN(C)C)cc3c2[nH]c2ccccc23)cc1`, the figure is 4.3 µM; as for `COc1ccc(S(=O)(=O)Nc2cc3c(cc2C(C)=O)OCO3)cc1`, 5.56 µM; as for `Cc1nnc2c(NC3CCCCC3)nc3ccccc3n12`, 2.76 µM.
Turning to `COc1ccc(-c2cc3ccccc3oc2=O)cc1NC(=S)NC(=O)c1ccc2c(c1)OCCO2`, the AC26 is 3.97 µM.
As for `COC(=O)c1ccc(C)c(NS(=O)(=O)c2ccc3c(c2)OCCO3)c1`, the figure is 0.0447 µM; as for `COc1cc(C(=O)Nc2cc(C(F)(F)F)ccc2N2CCOCC2)ccc1OCC(=O)N1CCOCC1`, 1.82 µM.
As for `COc1cc2c(cc1OC)CN(C(=O)c1ccc3nc[nH]c3c1)CC2`, the figure is 6.32 µM.
For `COc1ccc(/C=C2\SC(=S)N(CCC(=O)NC3CCCC3)C2=O)cc1OC`, the AC26 is 6.27 µM.
In the case of `Cc1ccc2nc(-c3ccncc3)cc(C(=O)Nc3ccncc3)c2c1` it was 3.05 µM; in that of `COc1ccc2c(c1)C(=O)N1[C@H]3c4cc(Br)ccc4OC[C@@H]3[C@H](c3ccccc3)[C@]1(C)C(=O)N2`, 0.851 µM; in that of `COc1ccccc1N=CC1=C(O)CC(c2ccccc2)CC1=O` (centres undefined), 2.74 µM.
As for `CCN(CC)CCNc1ccc(CO)c2oc3ccccc3c(=O)c12`, the figure is 1.28 µM; as for `CCOc1ccc2cc(/C=C/C(=O)c3ccco3)c(Cl)nc2c1`, 3.06 µM; as for `COc1ccc(C(=O)Nc2sc(C)c(C)c2CN2CC(C)OC(C)C2)cc1` (centres undefined), 0.659 µM.
`CC(=O)C1=C(C)OC(N)=C(C#N)C1c1cc([N+](=O)[O-])ccc1Cl` (centres undefined): the AC26 was 2.9 µM.
In the case of `Cc1ccc(C(=O)NC(=C(Cl)Cl)S(=O)(=O)c2ccc(Cl)cc2)cc1` it was 3.66 µM; in that of `COc1ccc(-c2nc3c(C(=O)NCCN(C)C)cccc3c3ccccc23)cc1`, 4.16 µM; in that of `Cc1ccnc(NC(=O)CCCOc2cc(=O)n(C)c3ccccc23)c1`, 14.9 µM.
As for `CN(C)c1ccc(/C=C/C(=O)c2ccc(C(C)(C)C)cc2)cc1[N+](=O)[O-]`, the AC26 was 5.57 µM.
In the case of `C=CCn1c(SCc2c(C)noc2C)nc2sc3c(c2c1=O)CCC(C)C3` (centres undefined) it was 2.06 µM; in that of `CC(=O)Nc1cccc(-c2ccnc3c2CC(C(=O)Nc2ccc4c(c2)OCO4)O3)c1` (centres undefined), 4.55 µM.
In the case of `CCn1c2ccccc2c2cc(NC(=O)COC(=O)c3ccc(O)cc3)ccc21` it was 5.82 µM; in that of `COc1ccc2cc(CN(CC3CCCO3)C(=O)Nc3ccccc3OC)c(=O)[nH]c2c1` (centres undefined), 4.02 µM; in that of `CC1(C(=O)NCCc2ccccc2)Cc2c(-c3ccc4c(c3)OCO4)ccnc2O1` (centres undefined), 3.16 µM.
In the case of `CN1CCN(CC(=O)Nc2cc(N(C)C)nc3ccccc23)CC1` it was 6.65 µM; in that of `Nc1ncnc(Sc2ccc(Cl)cc2)c1[N+](=O)[O-]`, 13.4 µM; in that of `CCOc1ccc(S(=O)(=O)NCc2ccccn2)cc1NC(=O)c1ccccc1F`, 0.593 µM.
